Assay: xn = mol fraction of the nth substance listed

CC(Cl)(Cl)Cl + C1CCOC1
303.15 K, 101 kPa
Settings | viscosity [mPa·s]
x2 = 0.0731 | 0.7289
x2 = 0.1213 | 0.7262
x2 = 0.2262 | 0.7112
x2 = 0.3894 | 0.6687
x2 = 0.4716 | 0.6424
x2 = 0.5677 | 0.6104
x2 = 0.6475 | 0.5834
x2 = 0.7415 | 0.5513
x2 = 0.8139 | 0.5271
x2 = 0.866 | 0.51

CC(Cl)(Cl)Cl + CCCCO
298.15 K, 101 kPa
Settings | viscosity [mPa·s]
x1 = 0.1022 | 2.187
x1 = 0.2068 | 1.872
x1 = 0.3061 | 1.611
x1 = 0.4067 | 1.372
x1 = 0.5174 | 1.164
x1 = 0.605 | 1.042
x1 = 0.6995 | 0.936
x1 = 0.7924 | 0.855
x1 = 0.9022 | 0.811

CC(Cl)(Cl)Cl + CCCCCOC(C)=O
303.15 K, 101.3 kPa
Settings | viscosity [mPa·s]
x2 = 0.104 | 0.7366
x2 = 0.1989 | 0.7441
x2 = 0.2995 | 0.7518
x2 = 0.4018 | 0.7568
x2 = 0.5014 | 0.7653
x2 = 0.5996 | 0.7667
x2 = 0.6961 | 0.7663
x2 = 0.7935 | 0.7658
x2 = 0.8993 | 0.7589

O=CC(Br)(Br)Br + CCCCO
viscosity [mPa·s], 101.33 kPa
Settings | x1 = 0.1 | x1 = 0.2 | x1 = 0.3 | x1 = 0.4 | x1 = 0.5 | x1 = 0.6 | x1 = 0.7 | x1 = 0.797 | x1 = 0.899
293.15 K | 4.71 | 6.92 | 10.15 | 15.97 | 22.38 | 21.27 | 15.08 | 11.21 | 9.11
313.15 K | 2.56 | 3.84 | 4.96 | 7.06 | 8.81 | 8.39 | 6.2 | 4.97 | 4.21

CNC[C@H](O)c1cccc(O)c1.Cl + CO
viscosity [mPa·s], 100 kPa
Settings | 293.15 K | 298.15 K | 303.15 K | 308.15 K | 313.15 K | 318.15 K | 323.15 K
x1 = 0.00048 | 0.6061 | 0.5699 | 0.5374 | 0.4992 | 0.4719 | 0.4428 | 0.4161
x1 = 0.00096 | 0.6213 | 0.5836 | 0.5482 | 0.5108 | 0.4839 | 0.4485 | 0.4228
x1 = 0.00144 | 0.6373 | 0.593 | 0.5581 | 0.5213 | 0.4935 | 0.4539 | 0.4302
x1 = 0.00192 | 0.6534 | 0.6059 | 0.5687 | 0.5404 | 0.5059 | 0.466 | 0.433
x1 = 0.0024 | 0.6642 | 0.6216 | 0.5828 | 0.5593 | 0.5182 | 0.4782 | 0.4357

CCCCCCCCn1cc[n+](C)c1.[Cl][Fe-]([Cl])([Cl])[Cl] + CCOC(C)=O
viscosity [mPa·s], 101 kPa
Settings | x1 = 0.0999 | x1 = 0.197 | x1 = 0.2987 | x1 = 0.3989 | x1 = 0.4986 | x1 = 0.6004 | x1 = 0.6958 | x1 = 0.7939 | x1 = 0.8777
293.15 K | 1.47 | 3.56 | 7.5 | 13.82 | 23.21 | 37.15 | 58.2 | 85.97 | 111.8
298.15 K | 1.38 | 3.24 | 6.65 | 11.97 | 19.68 | 30.95 | 47.6 | 69.55 | 91.12
303.15 K | 1.29 | 2.97 | 5.94 | 10.48 | 16.88 | 26.07 | 39.75 | 56.28 | 73.83
308.15 K | 1.21 | 2.72 | 5.33 | 9.22 | 14.61 | 22.2 | 33.32 | 46.86 | 59.83
313.15 K | 1.14 | 2.52 | 4.81 | 8.17 | 12.77 | 19.08 | 28.28 | 39.4 | 49.32
318.15 K | 1.07 | 2.33 | 4.37 | 7.31 | 11.24 | 16.49 | 24.27 | 33.42 | 41.48
323.15 K | 1.02 | 2.16 | 3.99 | 6.6 | 9.97 | 14.4 | 20.98 | 28.43 | 35.08

C1CN2CN3CCN(CN1C3)C2 + [2H]O[2H]
viscosity [mPa·s], 101 kPa
Settings | x1 = 0.004058 | x1 = 0.008015 | x1 = 0.01192 | x1 = 0.01581 | x1 = 0.02009
293.15 K | 1.263 | 1.307 | 1.389 | 1.485 | 1.602
298.15 K | 1.128 | 1.174 | 1.233 | 1.315 | 1.426
300.15 K | 1.018 | 1.066 | 1.131 | 1.225 | 1.352
305.15 K | 0.918 | 0.975 | 1.042 | 1.133 | 1.251

CC(Cl)(Cl)Cl + CCCOCCC
298.15 K, 101.33 kPa
Settings | viscosity [mPa·s]
x1 = 0.101 | 0.4245
x1 = 0.198 | 0.4478
x1 = 0.299 | 0.4745
x1 = 0.398 | 0.5036
x1 = 0.5 | 0.5365
x1 = 0.601 | 0.5733
x1 = 0.7 | 0.6147
x1 = 0.8 | 0.6632
x1 = 0.85 | 0.6907

O=CO + C1COCO1
298.15 K, 101 kPa
Settings | viscosity [mPa·s]
x2 = 0.0646 | 1.419
x2 = 0.1345 | 1.36
x2 = 0.2103 | 1.292
x2 = 0.2929 | 1.216
x2 = 0.3832 | 1.131
x2 = 0.4824 | 1.035
x2 = 0.5918 | 0.9302
x2 = 0.7131 | 0.8195
x2 = 0.8483 | 0.7018

O=[N+]([O-])[O-].O=[N+]([O-])[O-].[Ba+2] + O
viscosity [mPa·s], 100 kPa
Settings | x1 = 0.0003 | x1 = 0.001 | x1 = 0.003 | x1 = 0.004 | x1 = 0.006
298.15 K | 0.888 | 0.9055 | 0.9235 | 0.943 | 0.965
323.15 K | 0.5475 | 0.562 | 0.5775 | 0.59 | 0.603

O=CO + CCC(C)=O
viscosity [mPa·s], 101 kPa
Settings | x1 = 0.1013 | x1 = 0.2006 | x1 = 0.3007 | x1 = 0.3962 | x1 = 0.4985 | x1 = 0.602 | x1 = 0.7014 | x1 = 0.7972 | x1 = 0.9011
298.15 K | 0.4271 | 0.4706 | 0.5282 | 0.5841 | 0.6726 | 0.7807 | 0.9125 | 1.078 | 1.309
308.15 K | 0.3863 | 0.4247 | 0.4703 | 0.5186 | 0.5915 | 0.6799 | 0.787 | 0.9165 | 1.095
318.15 K | 0.3479 | 0.3801 | 0.4183 | 0.458 | 0.5195 | 0.5896 | 0.6771 | 0.7866 | 0.9246

From the CheMixHub viscosity set
